This passage reports inhibition results from patent US7511047B2, “Kinase inhibitors” (Cytopia Research Pty Ltd, priority 2002, dated 2009).

What all share (type): biochemical
The target of test [1] is T1, abl (Homo sapiens, UniProt P00519).
T1 sequence (P00519 242-493 limits assumed): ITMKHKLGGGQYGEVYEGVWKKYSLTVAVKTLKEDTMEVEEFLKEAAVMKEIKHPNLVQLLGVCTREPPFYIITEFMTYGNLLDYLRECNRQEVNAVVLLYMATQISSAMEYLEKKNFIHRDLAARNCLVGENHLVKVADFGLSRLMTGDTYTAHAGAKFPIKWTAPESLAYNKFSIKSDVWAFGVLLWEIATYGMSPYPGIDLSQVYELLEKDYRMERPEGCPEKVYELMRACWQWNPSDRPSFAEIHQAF
Description: abl kinase assay (ELISA or Alphascreen). The note with it: capacity to inhibit 50% of activity at 50 μM; read-out: abl inhibitory activity. In outline: (§1)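 Each kinase used about 1.5 μg affinity-purified PTK domain in 50 mM HEPES pH 7.5, 10 mM MgCl2, 150 mM NaCl and 10 μM–1 mM ATP, with 5 μM biotinylated peptide substrate. Phosphotyrosine was read by ELISA with PY20 on avidin plates or by AlphaScreen beads.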
A general note: In an ELISA, binding on a coated surface is turned into a signal by an enzyme label.

For test [2], the target named is T2, Jak2 (Homo sapiens, UniProt O60674).
T2 construct: The kinase domain of humanJAK2 was amplified from U937mRNA; His tag (from pFastBac HTc vector) (N); made in house; host or cells: baculovirus; Sf9 insect cells for virus, High Five cells for large-scale production
Description: JAK2 kinase domain assay (ELISA or Alphascreen). The note with it: capacity to inhibit 50% of activity at 50 μM; read-out: Jak2 inhibitory activity. In outline: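 Recombinant His-tagged human JAK2 kinase domain, expressed in High Five insect cells via baculovirus, ~1.5 μg per well in 50 mM HEPES pH 7.5, 10 mM MgCl2, 150 mM NaCl, 10 μM-1 mM ATP, 5 μM biotinylated peptide substrate. Phosphotyrosine read by anti-pTyr PY20 ELISA or Alphascreen.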

Test [3] concerns the target hck (Homo sapiens, UniProt P08631). Description: hck kinase assay (ELISA or Alphascreen). The note with it: capacity to inhibit 50% of activity at 50 μM; read-out: hck inhibitory activity. In short, it runs like this:
as §1

Test [4] deals with kdr (Homo sapiens, UniProt P35968). As to the kind of experiment: kdr kinase assay (ELISA or Alphascreen). The note with it: capacity to inhibit 50% of activity at 50 μM; read-out: kdr inhibitory activity. In outline:
as §1

Test [5] deals with T3, Jak3 (Homo sapiens, UniProt P52333).
T3 construct: The kinase domain of humanJAK3 was amplified from U937mRNA; His tag (from pFastBac HTb vector) (N); made in house; host or cells: baculovirus; Sf9 insect cells for virus, High Five cells for large-scale production
Description: JAK3 kinase domain assay (ELISA or Alphascreen). The note with it: capacity to inhibit 50% of activity at 50 μM; read-out: Jak3 inhibitory activity. In short, it runs like this: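 The human JAK3 kinase domain was expressed in baculovirus-infected insect cells and nickel-affinity purified; about 1.5 μg was used per reaction. The buffer was 50 mM HEPES pH 7.5, 10 mM MgCl2, 150 mM NaCl, with 10 μM–1 mM ATP and 5 μM biotinylated peptide. Read-out was PY20 anti-phosphotyrosine ELISA or AlphaScreen.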

T2 sequence (O60674 849-1124 limits assumed): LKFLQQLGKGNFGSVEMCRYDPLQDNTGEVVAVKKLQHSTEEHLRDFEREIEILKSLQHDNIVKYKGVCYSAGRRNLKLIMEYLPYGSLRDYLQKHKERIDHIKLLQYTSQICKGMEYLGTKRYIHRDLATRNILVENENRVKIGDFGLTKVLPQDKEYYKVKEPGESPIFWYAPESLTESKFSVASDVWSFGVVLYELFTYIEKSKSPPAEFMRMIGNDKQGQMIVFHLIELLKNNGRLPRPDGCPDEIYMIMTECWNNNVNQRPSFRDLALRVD
Sequence of hck (P08631 262-515 limits assumed, species assumed): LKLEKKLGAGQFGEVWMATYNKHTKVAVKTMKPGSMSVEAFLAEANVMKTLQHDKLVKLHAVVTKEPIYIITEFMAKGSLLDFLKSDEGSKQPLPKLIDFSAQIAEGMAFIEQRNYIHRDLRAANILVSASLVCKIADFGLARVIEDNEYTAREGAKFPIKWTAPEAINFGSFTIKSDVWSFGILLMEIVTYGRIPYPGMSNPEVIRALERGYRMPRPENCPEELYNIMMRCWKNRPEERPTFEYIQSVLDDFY
Sequence of kdr (P35968 834-1162 limits assumed, species assumed): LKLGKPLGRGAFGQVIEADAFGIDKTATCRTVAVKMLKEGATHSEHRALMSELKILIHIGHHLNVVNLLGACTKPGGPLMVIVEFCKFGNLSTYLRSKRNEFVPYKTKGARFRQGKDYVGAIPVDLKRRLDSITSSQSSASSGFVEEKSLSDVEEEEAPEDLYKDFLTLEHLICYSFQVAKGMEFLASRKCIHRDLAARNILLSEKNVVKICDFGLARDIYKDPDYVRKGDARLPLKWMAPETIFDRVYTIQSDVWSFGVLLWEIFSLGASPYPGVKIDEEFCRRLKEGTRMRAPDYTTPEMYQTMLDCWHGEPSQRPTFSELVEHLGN
T3 sequence (P52333 822-1111 limits assumed): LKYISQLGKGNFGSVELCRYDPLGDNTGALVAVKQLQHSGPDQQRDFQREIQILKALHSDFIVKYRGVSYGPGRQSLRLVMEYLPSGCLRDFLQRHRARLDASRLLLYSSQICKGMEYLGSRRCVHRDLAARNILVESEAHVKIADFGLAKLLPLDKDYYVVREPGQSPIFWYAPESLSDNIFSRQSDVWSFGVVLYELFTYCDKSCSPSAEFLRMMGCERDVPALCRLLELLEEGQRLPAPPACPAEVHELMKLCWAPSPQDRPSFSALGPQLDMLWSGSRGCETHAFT

Regarding `C[C@@H](Nc1cncc(-n2cnc3ncccc32)n1)c1ccccc1`, the inhibition at 50 µM in test [1], in test [2], in test [3], in test [4] and in test [5] was under 50% in each case.
Consider `CNCCN(C)Cc1ccc2ncn(-c3cncc(NC(C)c4ccc(F)cc4)n3)c2c1` (stereo not shown), for which the inhibition at 50 µM was under 50% in test [1]; over 50% in test [2]; over 50% in test [3]; over 50% in test [4]; under 50% in test [5].
Consider `C[C@H](Nc1cncc(-n2cnc3cc(C(=O)Nc4ccccc4)ccc32)n1)c1ccccc1`, for which the inhibition at 50 µM in test [1] was over 50%; in test [2] it was under 50%; in test [3], over 50%; in test [4] it was under 50%; in test [5], under 50%.
For the compound `C[C@H](Nc1cncc(-n2cnc3cc(C4=NCCO4)ccc32)n1)c1ccccc1`, the inhibition at 50 µM in test [1] was over 50%; in test [2], under 50%; in test [3], over 50%; in test [4] it was over 50%; in test [5], under 50%.
On to `C[C@H](Nc1cncc(-n2cnc3cc(C(=O)NCCCN4CCOCC4)ccc32)n1)c1ccccc1`, for which the inhibition at 50 µM in test [1], in test [2], in test [3], in test [4] and in test [5] was over 50% throughout.
With `C[C@H](Nc1cncc(-n2ccnc2)n1)c1ccccc1`, the inhibition at 50 µM in test [1] was over 50%; in test [2], under 50%; in test [3], over 50%; in test [4], under 50%; in test [5], under 50%.
For `C[C@H](Nc1cncc(-n2cnc3ccncc32)n1)c1ccccc1`, the inhibition at 50 µM in test [1], in test [2], in test [3], in test [4] and in test [5] was over 50% each time.
On to `C[C@H](Nc1cncc(-n2cnc3cc(C(N)=O)ccc32)n1)c1ccccc1`, for which the inhibition at 50 µM in test [1] is over 50%; in test [2], over 50%; in test [3] it was over 50%; in test [4], over 50%; in test [5], under 50%.
On to `C[C@H](Nc1cncc(-n2cnc3ccc(NC(=O)c4ccncc4)cc32)n1)c1ccccc1`, for which the inhibition at 50 µM in test [1] is over 50%; in test [2] it was over 50%; in test [3], under 50%; in test [4], over 50%; in test [5] it was under 50%.
Consider `C[C@H](Nc1cncc(-n2cnc3ccc(NC(=O)c4cccnc4)cc32)n1)c1ccccc1`, for which the inhibition at 50 µM in test [1] was over 50%; in test [2], over 50%; in test [3], over 50%; in test [4] it was over 50%; in test [5] it was under 50%.
For `Cc1ccc2c(c1)ncn2-c1cncc(N[C@@H](C)c2ccccc2)n1`, the inhibition at 50 µM in test [1] is over 50%; in test [2], over 50%; in test [3], over 50%; in test [4], over 50%; in test [5], under 50%.
